{
  "source": "patent US9598448B2",
  "about": "“Osmium (II) arene imino anti-cancer complexes” (University of Warwick, priority 2010, dated 2017)",
  "key": {"[1]": {"test_system": "HCT-116 colon adenocarcinoma s.c. xenograft model", "assay": "In vivo efficacy in HCT-116 s.c. xenograft model"}, "Leukemia HL-60 (TB)": {"test_system": "Leukemia HL-60 (TB)", "assay": "NCI 60-cell line screen, HL-60 (TB)", "assay_type": "cell-based, human", "details": "48 h", "procedure": "The cells were treated for 48 h at five concentrations ranging from 0.01 to 100 μM. Three endpoints were calculated: GI 50 (the concentration inhibits cell growth by 50%): […]"}, "[2]": {"test_system": "Balb/c immunodeficient nude mice bearing HCT-116 tumours", "assay": "Evaluation of in vivo toxicity in nude mouse HCT-116 xenograft model", "details": "i.v. day 0, doses from 2 up to 40 mg kg^−1, monitored 15 days", "procedure": "Female Balb/c immunodeficient nude mice (Harlan, Loughborough, UK) aged 6-12 weeks were used. Mice received Harlan 2018 diet (Harlan) and water ad libitum. Mice were kept in cages in an air-conditioned room with regular alternating cycles of light and darkness. All animal procedures were carried out under a project license issued by the UK Home Office and UKCCCR guidelines (Workman P, Twentyman P, Balkwill F et al: United Kingdom Co-ordinating Committee on Cancer Research (UKCCCR) Guidelines for the Welfare of Animals in Experimental Neoplasia (Second Edition). Br J Cancer 77: 1-10, 1998) were followed throughout.\nHCT-116 was used in the study. Tumours were excised from a donor animal, placed in sterile physiological saline containing antibiotics and cut into small fragments of approximately 2 mm^3. Under brief general inhalation anaesthesia, fragments were implanted in the […] abdominal flank of each mouse using a trocar. Once the tumours could accurately be measured using callipers (mean tumour volume of approximately 50 mm^3), treatment commenced. Complexes 3 and 6 were solubilised in 10% DMSO; 5% Tween-80; 85% saline and were administered intravenously to groups of 2 mice on day 0. Animals were weighed frequently and monitored for any deleterious effects over a period of 15 days."}, "[3]": {"test_system": "microtubules in A2780 human ovarian cancer cell line", "assay": "Immunofluorescence of microtubules by confocal microscopy", "assay_type": "cell-based", "details": "24 h treatment, 1 μM", "procedure": "A2780 Cells were seeded on Lab-Tek™ Chamber Slides (Thermo Scientific Nunc) 10,000 cells/chamber, after 24 h incubation, osmium compound [Os(η^6-bip)(2-F-Azpy)I]PF6 at different concentrations were added and incubate for another 24 h. Cells were fixed with 4% formaldehyde in PBS (20 min, 310 K), then rinsed with PBS (3×2 mL×2 min), and permeabilized with 0.1% Triton X-100 solution (PBS solution) for 15 min at ambient temperature. The cells were blocked with blocking buffer (2 mg/mL BSA, overnight at […]), and then, the cell monolayers were incubated (1 h, 310 K) with monoclonal anti-α-tubulin-Alexa 488 (4 μg/mL) (Invitrogen Molecular Probles, Catalog No. 32-2588). After the incubation, the cells were washed with PBS and the immunofluorescence was detected using a Leica SP5 fluorescence confocal microscope, with 100× objective."}, "HCT-116 colon": {"test_system": "HCT-116 colon", "assay": "MTT growth inhibition assay, HCT-116", "assay_type": "cell-based, human", "details": "96 h", "procedure": "Tumor cell growth inhibition was assessed using the MTT assay.^13 2×10^3 cells were inoculated into a 96-well plate and incubated overnight at 37° C. in a humidified atmosphere containing 5% CO2. Complexes were solubilised in DMSO as above, and then diluted in complete cell culture medium to give a broad range of concentrations. Cisplatin was included in the screen as a comparator. Medium was removed from each well and replaced with complex or control solutions, and the plates then incubated for a further 96 hours. After 96 h culture medium was removed and 200 μL of 0.5 mg mL^−1 MTT solution (Sigma) in complete medium added to each well. Following further 4 h incubation, the solution was removed from each well and 150 μL of DMSO (Sigma) added to solubilise the formazan crystals resulting from MTT conversion. Absorbance values for the resulting solutions were read at 550 nm on a microplate reader and cell survival calculated as the absorbance of treated cells divided by the control. Results were expressed in terms of IC50 values (i.e. concentration of compound required to kill 50% of cells) and all experiments were performed in triplicate.\nThe following human cancer cell lines were cultured in RPMI 1640 cell culture medium supplemented with 1 mM sodium pyruvate, 2 mM L-glutamine and 10% fetal bovine serum (all from Sigma): A549 non-small cell lung, HCT-116 colon, MCF-7 breast, PC-3 prostate (all from LGC Promochem, Teddington, UK), A2780/cis ovarian (cisplatin-resistant) and RT-112 bladder (both from ECACC, Salisbury, UK)."}, "[4]": {"details": "40.0 mg kg^−1, single intravenous injection"}},
  "note": "Entries after “also recorded” stand apart in the source; their conditions may differ.",
  "data": [
    {"substance": "[(η^6-p-cym)Os(Azpy-NMe2)I]PF6 [Complex 6]", "values": [
      {"measurement": "Maximum % weight loss", "setting": "[1]; [4]", "result": 8, "unit": "%"},
      {"measurement": "Median tumour doubling time", "setting": "[1]; [4]", "result": 6.2, "unit": "days"},
      {"measurement": "day of maximum % weight loss", "setting": "[1]; [4]", "result": 1, "unit": "days"},
      {"measurement": "toxicity", "setting": "[1]; single i.v. 40 mg/kg", "result": "negligible toxicity"},
      {"measurement": "tumour growth delay", "setting": "[1]; single i.v. 40 mg/kg, compared to the untreated control (p<0.01)", "result": "statistically significant tumour growth delay"},
      {"measurement": "GI50", "setting": "Leukemia HL-60 (TB)", "result": "< 0.05", "unit": "µM"},
      {"measurement": "toxicity / deleterious effects", "setting": "[2]", "result": "no evident toxicity; also recorded: negligible deleterious effects"},
      {"measurement": "inhibition of microtubule formation in cells", "setting": "[3]", "result": "inhibition forming microtubules were observed"},
      {"measurement": "IC50", "setting": "HCT-116 colon", "result": "< 0.3", "unit": "µM"}
    ]}
  ]
}
